Source: patent publication US8722849B2, “Polypeptides” (Novo Nordisk A/S, priority 2011, dated 2014)
Starred links: 1 amine or outer side, 2 acyl side, 3 side chain; linkers in the order of their positions; H or OH if unused. Positions of bridges follow the written chain, without caps; N, C: chain ends. Residues, ends and D or L forms follow the SMILES beside them. *: point of attachment. C20 diacid = O=C(O)CCCCCCCCCCCCCCCCCCC(=O)*; C18 diacid = O=C(O)CCCCCCCCCCCCCCCCC(=O)*; γGlu = O=C(O)[C@H](CCC(=O)[*:2])N[*:1]

Experiments:
[1] = Assay (III) ThT fibrillation assay for physical stability; type: physicochemical; conditions: ThT fibrillation assay
Outline: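 Freshly prepared formulations, pH-adjusted, with 1 μM ThT; four or eight replicates incubated at 37 °C under 960 rpm orbital shaking. Fluorescence (ex 444/em 485 nm) read every 20 min; […]. Peptide concentration measured by RP-HPLC before and after the run.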

food intake = assay: Assay (I) efficacy testing on appetite (food intake), ad libitum fed rat model; type: in vivo, Sprague Dawley (SD) rats; conditions: 3 nmol/kg
Outline: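 Food consumption was logged per animal every hour up to 7 h and again at 24 h (occasionally 48 h) after a single 0.01–3 mg/kg dose, given sc, po or ip at dark-phase onset. Ad libitum fed SD rats, 200–250 g, kept on inverted light/dark cycle; vehicle group included, outliers removed by Grubbs test.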

ThT pH 4.0 lag time [1] [h]	ThT pH 4.0 lag time (h) [1] [h]	SMILES	Food intake reduction 0-24 h 3 nmol/kg (%) (food intake)	Food intake reduction 24-48 h 3 nmol/kg (%) (food intake)
>45	>45	CC[C@H](C)[C@H](NC(=O)[C@@H]1CCCN1C(=O)CNC(=O)[C@H](Cc1ccccc1)NC(=O)[C@H](CC(N)=O)NC(=O)[C@H](CC(N)=O)NC(=O)[C@H](CO)NC(=O)[C@H](CO)NC(=O)[C@H](Cc1c[nH]cn1)NC(=O)[C@H](CCCNC(=N)N)NC(=O)[C@H](CC(C)C)NC(=O)[C@H](Cc1ccccc1)NC(=O)[C@H](CCC(=O)O)NC(=O)[C@H](C)NC(=O)[C@H](CC(C)C)NC(=O)[C@H](CCCNC(=N)N)NC(=O)[C@H](CCC(N)=O)NC(=O)[C@@H](NC(=O)[C@H](C)NC(=O)[C@@H]1CSSC[C@H](NC(=O)[C@H](CCCCN)NC(=O)[C@H](Cc2c[nH]cn2)NC(=O)CC[C@H](NC(=O)CCCCCCCCCCCCCCCCC(=O)O)C(=O)O)C(=O)N[C@@H](CC(N)=O)C(=O)N[C@@H]([C@@H](C)O)C(=O)N[C@@H](C)C(=O)N[C@@H]([C@@H](C)O)C(=O)N1)[C@@H](C)O)C(=O)N[C@@H](CC(C)C)C(=O)N1CCC[C@H]1C(=O)N1CCC[C@H]1C(=O)N[C@H](C(=O)N[C@@H](CC(N)=O)C(=O)N[C@H](C(=O)NCC(=O)N[C@@H](CO)C(=O)N[C@@H](Cc1c[nH]cn1)C(=O)N[C@H](C(=O)N[C@@H](Cc1ccc(O)cc1)C(N)=O)[C@@H](C)O)C(C)C)[C@@H](C)O [Example 71, N-alpha-[(S)-4-Carboxy-4-(17-carboxyheptadecanoylamino)butyryl]-His-[Glu14,Arg17,His35]-pramlintide] ({C18 diacid-γGlu}-HKCNTATCATQRLAEFLRHSSNNFGPILPPTNVGSHTY-NH2; disulfide 3-8 (inferred); C-terminus assumed)	10	0
		CC[C@H](C)[C@H](NC(=O)[C@@H]1CCCN1C(=O)CNC(=O)[C@H](Cc1ccccc1)NC(=O)[C@H](CC(N)=O)NC(=O)[C@H](CC(N)=O)NC(=O)[C@H](CO)NC(=O)[C@H](CO)NC(=O)[C@H](Cc1c[nH]cn1)NC(=O)[C@H](Cc1c[nH]cn1)NC(=O)[C@H](CC(C)C)NC(=O)[C@H](Cc1ccccc1)NC(=O)[C@H](CCC(=O)O)NC(=O)[C@H](C)NC(=O)[C@H](CC(C)C)NC(=O)[C@H](CCCNC(=N)N)NC(=O)[C@H](CCC(N)=O)NC(=O)[C@@H](NC(=O)[C@H](C)NC(=O)[C@@H]1CSSC[C@H](NC(=O)[C@H](Cc2c[nH]cn2)NC(=O)CC[C@H](NC(=O)CCCCCCCCCCCCCCCCCCC(=O)O)C(=O)O)C(=O)N[C@@H](CC(N)=O)C(=O)N[C@@H]([C@@H](C)O)C(=O)N[C@@H](C)C(=O)N[C@@H]([C@@H](C)O)C(=O)N1)[C@@H](C)O)C(=O)N[C@@H](CC(C)C)C(=O)N1CCC[C@H]1C(=O)N1CCC[C@H]1C(=O)N[C@H](C(=O)N[C@@H](CC(N)=O)C(=O)N[C@H](C(=O)NCC(=O)N[C@@H](CO)C(=O)N[C@@H](CC(N)=O)C(=O)N[C@H](C(=O)N[C@@H](Cc1ccc(O)cc1)C(N)=O)[C@@H](C)O)C(C)C)[C@@H](C)O [Example 18, N-alpha-[(S)-4-Carboxy-4-(19-carboxynonadecanoylamino)butyryl]-[His1,Glu14,His17]-pramlintide] ({C20 diacid-γGlu}-HCNTATCATQRLAEFLHHSSNNFGPILPPTNVGSNTY-NH2; disulfide 2-7 (inferred); C-terminus assumed)	40	32
		CC[C@H](C)[C@H](NC(=O)[C@@H]1CCCN1C(=O)CNC(=O)[C@H](Cc1ccccc1)NC(=O)[C@H](CC(N)=O)NC(=O)[C@H](CC(N)=O)NC(=O)[C@H](CO)NC(=O)[C@H](CO)NC(=O)[C@H](CCCNC(=N)N)NC(=O)[C@H](Cc1c[nH]cn1)NC(=O)[C@H](CC(C)C)NC(=O)[C@H](Cc1ccccc1)NC(=O)[C@H](CCC(=O)O)NC(=O)[C@H](C)NC(=O)[C@H](CC(C)C)NC(=O)[C@H](CCCNC(=N)N)NC(=O)[C@H](CCC(N)=O)NC(=O)[C@@H](NC(=O)[C@H](C)NC(=O)[C@@H]1CSSC[C@H](NC(=O)[C@H](CCC(=O)O)NC(=O)CC[C@H](NC(=O)CCCCCCCCCCCCCCCCCCC(=O)O)C(=O)O)C(=O)N[C@@H](CC(N)=O)C(=O)N[C@@H]([C@@H](C)O)C(=O)N[C@@H](C)C(=O)N[C@@H]([C@@H](C)O)C(=O)N1)[C@@H](C)O)C(=O)N[C@@H](CC(C)C)C(=O)N1CCC[C@H]1C(=O)N1CCC[C@H]1C(=O)N[C@H](C(=O)N[C@@H](CC(N)=O)C(=O)N[C@H](C(=O)NCC(=O)N[C@@H](CO)C(=O)N[C@@H](CC(N)=O)C(=O)N[C@H](C(=O)N1CCC[C@H]1C(N)=O)[C@@H](C)O)C(C)C)[C@@H](C)O [Example 10, N-alpha-[(S)-4-Carboxy-4-(19-carboxynonadecanoylamino)butyryl]-[Glu1,Glu14,His17,Arg18,Pro37]-pramlintide] ({C20 diacid-γGlu}-ECNTATCATQRLAEFLHRSSNNFGPILPPTNVGSNTP-NH2; disulfide 2-7)	50	40
	1	CC[C@H](C)[C@H](NC(=O)[C@@H]1CCCN1C(=O)CNC(=O)[C@H](Cc1ccccc1)NC(=O)[C@H](CC(N)=O)NC(=O)[C@H](CC(N)=O)NC(=O)[C@H](CO)NC(=O)[C@H](CO)NC(=O)[C@H](Cc1c[nH]cn1)NC(=O)[C@H](Cc1c[nH]cn1)NC(=O)[C@H](CC(C)C)NC(=O)[C@H](Cc1ccccc1)NC(=O)[C@H](CCC(=O)O)NC(=O)[C@H](C)NC(=O)[C@H](CC(C)C)NC(=O)[C@H](CCCNC(=N)N)NC(=O)[C@H](CCC(N)=O)NC(=O)[C@@H](NC(=O)[C@H](C)NC(=O)[C@@H]1CSSC[C@H](NC(=O)[C@H](Cc2c[nH]cn2)NC(=O)[C@H](Cc2c[nH]cn2)NC(=O)[C@H](Cc2c[nH]cn2)NC(=O)CC[C@H](NC(=O)CCCCCCCCCCCCCCCCCCC(=O)O)C(=O)O)C(=O)N[C@@H](CC(N)=O)C(=O)N[C@@H]([C@@H](C)O)C(=O)N[C@@H](C)C(=O)N[C@@H]([C@@H](C)O)C(=O)N1)[C@@H](C)O)C(=O)N[C@@H](CC(C)C)C(=O)N1CCC[C@H]1C(=O)N1CCC[C@H]1C(=O)N[C@H](C(=O)N[C@@H](CC(N)=O)C(=O)N[C@H](C(=O)NCC(=O)N[C@@H](CO)C(=O)N[C@@H](CCCNC(=N)N)C(=O)N[C@H](C(=O)N[C@@H](Cc1ccc(O)cc1)C(N)=O)[C@@H](C)O)C(C)C)[C@@H](C)O [Example 21, N-alpha-[(S)-4-Carboxy-4-(19-carboxynonadecanoylamino)butyryl]-His-His-[His1,Glu14,His17,Arg35]-pramlintide] ({C20 diacid-γGlu}-HHHCNTATCATQRLAEFLHHSSNNFGPILPPTNVGSRTY-NH2; disulfide 4-9 (inferred))		
	19	CC[C@H](C)[C@H](NC(=O)[C@@H]1CCCN1C(=O)CNC(=O)[C@H](Cc1ccccc1)NC(=O)[C@H](CC(N)=O)NC(=O)[C@H](CC(N)=O)NC(=O)[C@H](CO)NC(=O)[C@H](CO)NC(=O)[C@H](Cc1c[nH]cn1)NC(=O)[C@@H](NC(=O)[C@H](CC(C)C)NC(=O)[C@H](Cc1ccccc1)NC(=O)[C@H](CCC(=O)O)NC(=O)[C@H](C)NC(=O)[C@H](CC(C)C)NC(=O)[C@H](CCCNC(=N)N)NC(=O)[C@H](CCC(N)=O)NC(=O)[C@@H](NC(=O)[C@H](C)NC(=O)[C@@H]1CSSC[C@H](NC(=O)[C@H](CCCCN)NC(=O)CC[C@H](NC(=O)CCCCCCCCCCCCCCCCCCC(=O)O)C(=O)O)C(=O)N[C@@H](CC(N)=O)C(=O)N[C@@H]([C@@H](C)O)C(=O)N[C@@H](C)C(=O)N[C@@H]([C@@H](C)O)C(=O)N1)[C@@H](C)O)C(C)C)C(=O)N[C@@H](CC(C)C)C(=O)N1CCC[C@H]1C(=O)N1CCC[C@H]1C(=O)N[C@H](C(=O)N[C@@H](CC(N)=O)C(=O)N[C@H](C(=O)NCC(=O)N[C@@H](CO)C(=O)N[C@@H](Cc1c[nH]cn1)C(=O)N[C@H](C(=O)N[C@@H](Cc1ccc(O)cc1)C(N)=O)[C@@H](C)O)C(C)C)[C@@H](C)O [Example 93, N-alpha-[(S)-4-Carboxy-4-(19-carboxynonadecanoylamino)butyryl]-[Glu14,His35]-pramlintide] ({C20 diacid-γGlu}-KCNTATCATQRLAEFLVHSSNNFGPILPPTNVGSHTY-NH2; disulfide 2-7 (inferred); C-terminus assumed)		
	9	CC[C@H](C)[C@H](NC(=O)[C@@H]1CCCN1C(=O)CNC(=O)[C@H](Cc1ccccc1)NC(=O)[C@H](CC(N)=O)NC(=O)[C@H](CC(N)=O)NC(=O)[C@H](CO)NC(=O)[C@H](CO)NC(=O)[C@H](Cc1c[nH]cn1)NC(=O)[C@H](Cc1c[nH]cn1)NC(=O)[C@H](CC(C)C)NC(=O)[C@H](Cc1ccccc1)NC(=O)[C@H](CCC(=O)O)NC(=O)[C@H](C)NC(=O)[C@H](CC(C)C)NC(=O)[C@H](CCCNC(=N)N)NC(=O)[C@H](CCC(N)=O)NC(=O)[C@@H](NC(=O)[C@H](C)NC(=O)[C@@H]1CSSC[C@H](NC(=O)[C@H](Cc2c[nH]cn2)NC(=O)CC[C@H](NC(=O)CCCCCCCCCCCCCCCCC(=O)O)C(=O)O)C(=O)N[C@@H](CC(N)=O)C(=O)N[C@@H]([C@@H](C)O)C(=O)N[C@@H](C)C(=O)N[C@@H]([C@@H](C)O)C(=O)N1)[C@@H](C)O)C(=O)N[C@@H](CC(C)C)C(=O)N1CCC[C@H]1C(=O)N1CCC[C@H]1C(=O)N[C@H](C(=O)N[C@@H](CC(N)=O)C(=O)N[C@H](C(=O)NCC(=O)N[C@@H](CO)C(=O)N[C@@H](CC(N)=O)C(=O)N[C@H](C(=O)N[C@@H](Cc1ccc(O)cc1)C(N)=O)[C@@H](C)O)C(C)C)[C@@H](C)O [Example 48, N-alpha-[(S)-4-Carboxy-4-(17-carboxyheptadecanoylamino)butyryl]-[His1,Glu14,His17]-pramlintide] ({C18 diacid-γGlu}-HCNTATCATQRLAEFLHHSSNNFGPILPPTNVGSNTY-NH2; disulfide 2-7 (inferred))		
